The record followed here is patent US10106577B2, “Agonists of neurotrophin receptors and their use as medicaments” (BIONURE FARMA, S.L., priority 2010, dated 2018).

The viability is a read-out of living cells in per cent, often relative to untreated cells. The term Papp denotes a coefficient for how fast a substance crosses the barrier. The low end stands for slow passage, the high end for fast passage.

The test system of series [1] is PC12 cells. The experiment in a line: Receptor activation assay (PC12 differentiation with anti-TrkA antibody). Format: cell-based. Here is the method:
The hypothesis that G79, G80, and G81 can act through the binding to the extracellular portion of TrkA (binding site) and activate the tyrosine kinase receptor was tested by treating the PC12 cells with the small chemicals in combination with the antibody anti-TrkA or the K252a, a tyrosine kinase inhibitor. For this purpose PC12 cells were plated into collagen-coated 24-wells plates with 2.5% FBS and after 72 hrs were incubated with the small molecules alone or in combination with anti-TrkA antibody (AbCam, 1:2000) or K252a. NGF (100 ng/ml) was used as control and added alone or in combination with anti-TrkA antibody or K252a. The number of differentiated cells was evaluated after three days of treatment. The cell count was done in three randomly selected fields with 100 cells.

The test system of series [2] is PC12 cells. Kind of series: Secretagogue activity assay (PC12 differentiation with antibody anti-NGF). It is filed as cell-based. Here is the method: To assess if the tested compounds, G79, G80, and G81, act as secretagogues, inducing neurotrophic activity through the synthesis of NGF, PC12 cells were plated into collagen-coated 24-wells plates with only 2.5% FBS and after 72 hrs the cells were treated with the tested compounds (each one at 100 ng/ml) together with antibody anti-NGF (1 μg/ml, AbCam). After three days of treatment, the differentiation was evaluated. The cell count was done in three randomly selected fields with 100 cells.

The next series relates to RN22 cells. Kind of series: Survival assay in RN22 cells under CuSO4 oxidative stress (MTT). Format: cell-based, rat. The conditions noted are these: for cell viability of RN22 (in words): 1-10-50 ng/ml and 1-10 μg/ml, CuSO4 stress; for best working concentration for RN22 cell viability: tested 1-10-50 ng/ml and 1-10 μg/ml; for viability at 0.05 µg/mL: 50 ng/ml. The procedure:
The rat schwannome cell line RN22 was cultured in Dulbecco's modified Eagle's medium (DMEM) with 10% FBS and 1% penicillin/streptomycin. The cell culture was maintained in 5% CO2 at 37° C.
RN22 were plated into 24-wells plates at the concentration of 30.000 cells/well in medium without serum. After 24 h, the test compounds G79, G80, and G81 were added at different concentrations (1-10-50 ng/ml and 1-10 μg/ml) and NGF was used as positive control of survival. The cells were so incubated for 2 hrs. Oxidative stress was induced with copper sulphate (CuSO4) at the final concentration of 150 μg/ml. After over-night incubation cell viability was determined by reading the absorbance after adding MTT (Sigma Aldrich).

The next series has as its system NSC-34 cells. The experiment in a line: In vitro model of ALS, serum deprivation of motoneuron-like cells (MTT). It is filed as cell-based, mouse. The conditions noted are these: for neuroprotection on motorneurons challenged with serum deprivation (in words): 20 ng/ml to 50 μg/ml. Here is the method:
Mouse motoneuron-like cells NCS-34 were cultured in DMEM (Gibco) supplemented with 10% heat inactivated FBS and 1% penicillin/streptomycin. The cell culture was maintained in a humidified atmosphere of 95% air and CO2 at 37° C.
The nutritional deprivation stress in motorneurons was conducted as described previously in Masahito T. et al., J. Neuropathol. Exp. Neurol. 65(8):816-825 (2006). To assess the effect of trophic stress condition on ALS, the presence of apoptosis was investigated using serum deprivation. NSC-34 cells were seeded in 24-well poly-lysinated plates at 30,000 cells/well and preincubated for 24 h in DMEM plus 10% FBS with various doses of G79, G80, and G81 (20 ng/ml, 100 ng/ml, 2 μg/ml, 20 μg/ml, 50 μg/ml), and G-CSF (2 μg/ml) or BDNF (20 ng/ml) which both were used as positive controls (Masahito T. et al., ibid; Elliot J. L., Neurobiology of Disease 6:310-320 (1999)). Then, the medium was removed and replaced with fresh DMEM without FBS. After 48 h, cell viability was assayed by MTT assay, as described previously.

In series [3] the test system is PC12 cells. The experiment in a line: Signalling inhibition assays (PC12 differentiation with LY294002 or PD98059). It is filed as cell-based. The procedure: To evaluate if the transduction pathway induced by G79, G80, and G81 involves AKT and ERK activation, PC12 cell were treated with the test compounds in the presence of LY294002, an inhibitor of PI3K (an upstream activator of AKT) and PD98059, an inhibitor of MAPK kinase (an upstream activator of ERK). For this purpose, PC12 cells were plated into collagen-coated 24-wells plates with 2.5% FBS and after 72 hrs the cells were treated with the small molecules in combination with LY294002 (Sigma Aldrich, 10 μM) or PD98059 (Sigma Aldrich, 50 μM). NGF (100 ng/ml) was used as control and added alone or in combination with the inhibitors.

For a further series, the system named is SH-SY5Y cells. The experiment in a line: cells. The conditions noted are these: for protective effect against H2O2 oxidative stress (in words): H2O2 100 μM, 20 ng/ml to 50 μg/ml. It is filed as cell-based, human. The procedure: The cells were pre-treated for 3 hours with the test compounds at different concentrations (20 ng/ml, 100 ng/ml, 2 μg/ml, 20 μg/ml and 50 μg/ml) or BDNF (20 ng/ml) as a positive control. Then H2O2 (100 μM) was added and incubated for 24 hrs. The number of surviving cells was determined by MTT assay. […] In FIG. 5B, BDNF cell viability has been considered as the 100%. The H2O2 stress induced a decrease in the percentage of cell viability (no stress Ctr vs H2O2 stress=100±2% vs 95.9±0.5%). G79, compared to G80 and G81, is the one that exerted better protection, at the concentration of 20 ng/ml (BDNF vs G79=100±2.6 vs 107.4±5.8).

For series [4], the system named is PC12 cells. The experiment in a line: Dose response differentiation assay in PC12 cell line. Format: cell-based. Conditions: for number of differentiated cells in a field of 100 cells: after 3 days of treatment; for number of differentiated cells above the best working concentration: G79 at 50 μg/ml, G81 at concentrations higher than 100 ng/ml; for differentiation of PC12 cells (in words): compared to control PC12 untreated cells; for best working concentration for PC12 differentiation: tested 2-20-100 ng/ml and 2-20-50 μg/ml. The procedure: Stock of PC12 cultures were maintained in Ham's F12 medium supplemented with 2.5% fetal bovine serum (FBS), 15% of horse serum (HS) and 1% penicillin/streptomycin. The cell culture was maintained in 5% CO2 at 37° C.
PC12 cell differentiation was assessed by treating the cells with all the test compounds (G79, G80, and G81) at different testing concentration (2-20-100 ng/ml and 2-20-50 μg/ml). The cells were first plated into collagen-coated 24-wells plates with 2.5% FBS in the medium to be de-differentiated. After 72 hrs, the test compounds were added and NGF (Sigma Aldrich; 100 ng/ml) as positive control of differentiation. The number of differentiated cells, with neurite processes greater than two cell bodies in length, is counted after 3 days of treatment. The cell count is done in three randomly selected fields with 100 cells.

A short description of a further series: in vitro. The conditions noted are these: rat (astrocytes).
Setting [5] is: in combination with anti-TrkA antibody (1:2000).
[6] abbreviates: 100 ng/ml together with antibody anti-NGF (1 μg/ml).
Setting [7] is: plus LY294002 (10 μM), inhibitor of PI3K.
Setting [8] is: plus PD98059 (50 μM), inhibitor of MAPK kinase.
[9] abbreviates: Rattus norvegicus, RN 22, CuSO4 150 μg/ml, read-out: cell viability, as % relative to the no-stress control.

“Also recorded” adds a separate entry of the source.

Consider `CC(C)CN(CC(=O)N(CCCN1CCCC1=O)CC(N)=O)C(=O)CNCCc1ccccc1F` [Compound G79, [N-(2-(2′-Fluorophenyl)ethyl)glycyl]-[N-(2-methylpropyl)glycyl]-N-[3-(2′-oxopyrrolidinyl)propyl]glycinamide], for which the “number of differentiated cells” value with PC12 cells [1] (setting [5]) is recorded as 19.6±8.1; in the series on PC12 cells [1] (treatment alone), 11.5±2.8; in the series with PC12 cells [3] (setting [7]), 5.28±2.54; in the series with PC12 cells [3] (setting [8]) it was 3.1±1.06; in the series with PC12 cells [3] (treatment alone), 11.5±2.8. Besides, the “number of differentiated cells for each field” value with PC12 cells [2] (setting [6]) is 18.8±4.9; with PC12 cells [2] (100 ng/ml, treatment alone), 11.5±2.8. Also, the “cell viability of RN22 (in words)” value in the series with RN22 cells is recorded as “increased cell viability at all tested concentrations”. In the series with RN22 cells (Rattus norvegicus, RN 22, 10 ng/ml, CuSO4 150 μg/ml, read-out: cell viability, as % relative to the no-stress control), the viability at 0.01 µg/mL is 98.1%. In the series on RN22 cells, the “best working concentration for RN22 cell viability” value stood at 10 ng/mL. For the same compound, the “neuroprotection on motorneurons challenged with serum deprivation (in words)” value (shortened to “neuroprotection”) in the series on NSC-34 cells is listed as “exerted neuroprotection”. Besides, the viability at 0.1 µg/mL in the series with NSC-34 cells (Mus musculus, NSC-34, 100 ng/ml, serum deprivation 48 h, read-out: cell viability, percentage relative to the control without stress) turned out to be 98.1 ± 6.14%. Moreover, in the series on NSC-34 cells (serum deprivation), the “concentration of the best neuroprotective effect” value was determined as 100 ng/mL. Besides, in the series on SH-SY5Y cells, the “protective effect against H2O2 oxidative stress (in words)” value (shortened to “protective effect … (in words)”) is on record as “protective effect”. In addition, the viability at 0.02 µg/mL in the series on SH-SY5Y cells (Homo sapiens, SH-SY5Y, 24 h, read-out: cell viability, BDNF cell viability considered as the 100%) was 107 ± 5.8%. Further, the “number of differentiated cells in a field of 100 cells” value in the series with PC12 cells [4] (20 μg/ml) stood at 11.3±2.68 cells. Further, the “number of differentiated cells above the best working concentration” value in the series on PC12 cells [4] was “decreases”. In the series with PC12 cells [4], the “differentiation of PC12 cells (in words)” value is on record as “induce the differentiation of PC12 cells”. Also, the “best working concentration for PC12 differentiation” value in the series on PC12 cells [4] worked out at 20000 ng/mL. In addition, the Papp in the series “in vitro” turned out to be 4.1 ×10⁻⁶ cm/s.
Regarding `CC(C)CN(CC(=O)N(CCc1ccc(S(N)(=O)=O)cc1)CC(N)=O)C(=O)CNCCc1ccccc1F` [Compound G80, [N-(2-(2′-Fluorophenyl)ethyl)glycyl]-[N-(2-methylpropyl)glycyl]-N-[2-(4′-sulfamoylphenyl)ethyl]glycinamide], the “number of differentiated cells” value with PC12 cells [1] (setting [5]) is 14.6±4.1; in the series on PC12 cells [1] (treatment alone), 15.1±6.3; with PC12 cells [3] (setting [7]), 8.5±2.6; in the series on PC12 cells [3] (setting [8]) it was 4±2.3; with PC12 cells [3] (treatment alone), 15.1±6.3. For the same compound, the “number of differentiated cells for each field” value in the series with PC12 cells [2] (setting [6]) is on record as 14.1±1.8; in the series with PC12 cells [2] (100 ng/ml, treatment alone), 15.1±6.3. For the same compound, in the series on RN22 cells, the “cell viability of RN22 (in words)” value is listed as “increased cell viability at all tested concentrations”. In addition, the viability at 0.05 µg/mL in the series on RN22 cells (setting [9]) is 99.9%. For the same compound, the “best working concentration for RN22 cell viability” value in the series on RN22 cells is 50 ng/mL. Moreover, in the series on NSC-34 cells, the “neuroprotection” value was “exerted neuroprotection”. Further, the “protective effect … (in words)” value with SH-SY5Y cells is “protective effect”. In addition, the “differentiation of PC12 cells (in words)” value in the series on PC12 cells [4] is “induce the differentiation of PC12 cells; also recorded: good differentiation with very long neurites”. For the same compound, the “best working concentration for PC12 differentiation” value with PC12 cells [4] came to 20 ng/mL. This compound displayed an apparent permeability (Papp) in the series “in vitro” of 2.8 ×10⁻⁶ cm/s.
With `CC(C)CN(CC(=O)N(CCc1ccc(S(N)(=O)=O)cc1)CC(N)=O)C(=O)CNCCN1CCCC1` [Compound G81, [N-(2-(1-Pyrrolidinyl)ethyl)glycyl]-[N-(2-methylpropyl)glycyl]-N-[2-(4′-sulfamoylphenyl)ethyl]glycinamide], the “number of differentiated cells” value with PC12 cells [1] (setting [5]) was 16.5±5.9; with PC12 cells [1] (treatment alone) it was 14.1±3.3; in the series on PC12 cells [3] (setting [7]), 6.6±4.02; in the series with PC12 cells [3] (setting [8]) it was 1.6±1.1; with PC12 cells [3] (treatment alone) it was 14.1±3.3. Also, the “number of differentiated cells for each field” value is reported as 15.5±4.1 with PC12 cells [2] (setting [6]) and 14.1±3.3 in the series with PC12 cells [2] (100 ng/ml, treatment alone). In addition, the “cell viability of RN22 (in words)” value in the series with RN22 cells is reported as “increased cell viability at all tested concentrations”. Further, the viability at 0.05 µg/mL in the series on RN22 cells (setting [9]) was found to be 102%. Moreover, the “best working concentration for RN22 cell viability” value in the series on RN22 cells was determined as 50 ng/mL. In addition, in the series with NSC-34 cells, the “neuroprotection” value was “exerted neuroprotection”. Further, in the series on SH-SY5Y cells, the “protective effect … (in words)” value is on record as “protective effect”. Also, the “number of differentiated cells in a field of 100 cells” value in the series with PC12 cells [4] (100 ng/ml) is 9.2±3.9 cells. In the series with PC12 cells [4], the “number of differentiated cells above the best working concentration” value is recorded as “decreases”. In addition, in the series on PC12 cells [4], the “differentiation of PC12 cells (in words)” value was “induce the differentiation of PC12 cells; also recorded: significant differentiation”. In addition, the “best working concentration for PC12 differentiation” value in the series on PC12 cells [4] turned out to be 100 ng/mL. Besides, the Papp in the series “in vitro” was found to be 2.1 ×10⁻⁶ cm/s.
